Experiments:
uterus in vitro = assay: uterotonic efficiency in vitro, inhibition activity pA2; format: cell-based; conditions: pA2, negative logarithm of molar inhibitor concentration; decimal commas
Excerpt: (§1) Certain biological effects of the analogs of oxytocin and vasopressin are set forth in Table I. The inhibition effects of compounds in an in vitro test are expressed as values of pA2, which is the negative logarithm of the molar concentration of inhibitor. This reduces the response of 2X units of an agonistic compound to be equal to the response of 1X units in the absence of inhibitor (Schild, Brit. J. Pharmacol. 2, 189, 1947; Dyckes et al, J. Med. Chem. 17, 160, 1974). In an […] test (uterus in vitro), the value of pA2 corresponds with the negative logarithm of an inhibitor constant according to the relationship [formula] wherein B is the concentration of inhibitor (M), A50 is the concentration of agonistic compound leading to 50% of the maximum effect, and A50B is the concentration of agonistic compound leading to 50% of the maximum effect in the presence of inhibitor B (Eggena et al, J. Gen. Physiol. 52, 465, 1968).

pressor = pressor efficiency, inhibition activity pA2; format: in vivo; conditions: decimal commas
Excerpt: as §1

galactogogic = galactogogic efficiency, inhibition activity pA2; format: in vivo; conditions: for Inhibition activity pA2 in the determination of efficiency galactogogic: decimal commas
Excerpt: as §1

uterus in situ = assay: uterotonic efficiency in situ, inhibition activity pA2; format: in vivo; conditions: pA2, negative logarithm of inhibitor constant; decimal commas
Excerpt: as §1

Molecule | Inhibition activity pA2 in the determination of efficiency uterotonic in vitro (uterus in vitro) | Inhibition activity pA2 in the determination of efficiency pressor (pressor) | galactogogic agonistic activity (galactogogic; footnote b: agonistic activity, not pA2) | Inhibition activity pA2 in the determination of efficiency uterotonic in situ (uterus in situ) | Inhibition activity pA2 in the determination of efficiency galactogogic (galactogogic)
CC[C@H](C)[C@@H]1NC(=O)[C@H](Cc2ccc(O)cc2)NC(=O)[C@@H](NC(C)=O)C(C)(C)SSC[C@@H](C(=O)N2CCC[C@H]2C(=O)N[C@@H](CC(C)C)C(=O)NCC(N)=O)NC(=O)[C@H](CC(N)=O)NC(=O)[C@H](CCC(N)=O)NC1=O [Ia, [1-N-acetylpenicilamine]oxytocin] | 4,4 | ineffective |  |  | 
CC[C@H](C)[C@@H]1NC(=O)[C@H](Cc2ccc(OC)cc2)NC(=O)[C@@H](NC(C)=O)C(C)(C)SSC[C@@H](C(=O)N2CCC[C@H]2C(=O)N[C@@H](CC(C)C)C(=O)NCC(N)=O)NC(=O)[C@H](CC(N)=O)NC(=O)[C@H](CCC(N)=O)NC1=O [Ic, [1-N-acetylpenicilamine, 2-O-methyltyrosine]oxytocin] | 5,4 | 6,4 | 0,45 I.U./mg |  | 
CC1(C)SSC[C@@H](C(=O)N2CCC[C@H]2C(=O)N[C@@H](CCCCN)C(=O)NCC(N)=O)NC(=O)[C@H](CC(N)=O)NC(=O)[C@H](CCC(N)=O)NC(=O)[C@H](Cc2ccccc2)NC(=O)[C@H](Cc2ccc(O)cc2)NC(=O)[C@H]1N [Id, [1-Penicilamine, 8-lysine]vasopressin] | 6,6 | 6,9 |  | 6,3 | 
CC(=O)N[C@@H]1C(=O)N[C@@H](Cc2ccc(O)cc2)C(=O)N[C@@H](Cc2ccccc2)C(=O)N[C@@H](CCC(N)=O)C(=O)N[C@@H](CC(N)=O)C(=O)N[C@H](C(=O)N2CCC[C@H]2C(=O)N[C@@H](CCCCN)C(=O)NCC(N)=O)CSSC1(C)C [Ie, [1-N-Actylpenicilamine, 8-lysine]vasopressin] | 5,5 | ineffective |  | 6,3 | ineffective
COc1ccc(C[C@@H]2NC(=O)[C@@H](N)C(C)(C)SSC[C@@H](C(=O)N3CCC[C@H]3C(=O)N[C@@H](CCCCN)C(=O)NCC(N)=O)NC(=O)[C@H](CC(N)=O)NC(=O)[C@H](CCC(N)=O)NC(=O)[C@H](Cc3ccccc3)NC2=O)cc1 [If, [1-Penicilamine, 2-O-methyltyrosine, 8-lysine]vasopressin] | 8,1 | 7,4 |  | 6,9 | 6,8
COc1ccc(C[C@@H]2NC(=O)[C@@H](NC(C)=O)C(C)(C)SSC[C@@H](C(=O)N3CCC[C@H]3C(=O)N[C@@H](CCCCN)C(=O)NCC(N)=O)NC(=O)[C@H](CC(N)=O)NC(=O)[C@H](CCC(N)=O)NC(=O)[C@H](Cc3ccccc3)NC2=O)cc1 [Ig, [1-N-acetylpenicilamine, 2-O-methyltyrosine, 8-lysine]vasopressin] |  | 6,7 |  |  | ineffective
CC1(C)SSC[C@H](N)C(=O)N[C@@H](Cc2ccc(O)cc2)C(=O)N[C@@H](Cc2ccccc2)C(=O)N[C@@H](CCC(N)=O)C(=O)N[C@@H](CC(N)=O)C(=O)N[C@@H]1C(=O)N1CCC[C@H]1C(=O)N[C@@H](CCCCN)C(=O)NCC(N)=O [Ih, [6-Penicilamine, 8-lysine]vasopressin] | 6,00 | 6,73 |  | 6,16 | 
CC1(C)SSC(C)(C)[C@@H](C(=O)N2CCC[C@H]2C(=O)N[C@@H](CCCCN)C(=O)NCC(N)=O)NC(=O)[C@H](CC(N)=O)NC(=O)[C@H](CCC(N)=O)NC(=O)[C@H](Cc2ccccc2)NC(=O)[C@H](Cc2ccc(O)cc2)NC(=O)[C@H]1N [Ii, [1-Penicilamine, 6-penicilamine, 8-lysine]vasopressin] | 6,80 | 7,18 |  | 6,80 | 
[1-Penicilamine, 2-O-methyltyrosine]oxytocin [Ib] | 8,0 | 7,2 |  | 6,9 | 6,8
